Results published in patent US20230057930A1, “COMPOSITIONS FOR ALLEVIATING THE SYMPTOMS OF LOW ANTERIOR RESECTION SYNDROME BY TOPICAL ADMINISTRATION TO THE NEORECTUM” (RepoCeuticals A/S, priority 2020, published 2023).

Tests used:
human subjects = conditions: cited from earlier work
rats = conditions: rat, cited from earlier work
[1] = Storage stability of melatonin in aqueous solution / formulation; type: physicochemical; conditions: shelf life
Procedure: Dimethyl sulfoxide (DMSO): DMSO ((CH3)2SO), molecular weight 78.1 g/mol, is a colorless polar aprotic solvent for both polar and nonpolar compounds and is completely miscible with water and a wide range of organic solvents. It is well known as a solvent or solubilizer for melatonin, as are also ethanol, glycerin and propylene glycol. […] On the other hand, the solubility of melatonin in water is limited to approximately 2 g/L at 20° C. […] DMSO penetrates the skin and other epithelia without damaging them and can carry other compounds dissolved in it into the underlying cells and tissues. DMSO has been used in human subjects as a topical analgesic, a vehicle for the topical application of pharmaceuticals e.g. as a component of a transdermal drug delivery systems, as an anti-inflammatory agent, and as an antioxidant. It is also used as a cryopreservative for sperm and oocytes in fertility treatments as well as for stem cells and modified lymphocytes for cellular therapies for cancer. […] While DMSO has been examined for the treatment of numerous conditions and ailments, its only use approved by the U.S. Food and Drug Administration (FDA) has been for the symptomatic treatment of interstitial cystitis, in which 50% (w/w) aqueous DMSO is instilled into the urinary bladder. […]

[2] = cited from earlier work
patients with LARS = conditions: cited from earlier work

C[S+](C)[O-] [DMSO, Dimethyl sulfoxide]
adverse effects in patients (human subjects; intravenously, doses up to 1 g/kg/day): without evidence of adverse effects | median 50% lethal oral dose (LD50 oral) relative to ethanol (rats; oral): twice as high as that of ethanol | effect on decomposition of melatonin in aqueous solutions [1]: prevents the decomposition of melatonin

COc1ccc2[nH]cc(CCNC(C)=O)c2c1 [Melatonin, N-acetyl-5-methoxytryptamine]
adverse effects in human subjects (human subjects; gram amounts oral per day for prolonged periods): without apparent adverse effects | 50% lethal oral dose (LD50 oral) (rats; in vivo, po): > 3200 mg/kg | solubility in water ([2]; 20° C.): approximately 2 g/L | solubility in DMSO ([2]; room temperature (20 or 25° C.)): ≥ 232 mg/mL

Cn1cc(C(=O)[C@@H]2CCc3nc[nH]c3C2)c2ccccc21 [ramosetron]
effect on symptoms of LARS (patients with LARS): alleviated the symptoms of urgency and reduced the number of bowel movements per day

glycofurol
effect on decomposition of melatonin in aqueous solutions [1]: reduces the decomposition of melatonin
